Read-outs that look alike come from different tables or passages of the source.
Experiments:
Assay in all cases: biochemical
[1] = biological target: MAP3K3 (Homo sapiens, UniProt Q99759)
[2] = biological target: DRAK1 (Homo sapiens, UniProt Q9UEE5)
[3] = biological target: GSK3B (Homo sapiens, UniProt P49841)
[4] = biological target: AKT3 (Homo sapiens, UniProt Q9Y243)
[5] = biological target: MAP3K4 (Homo sapiens, UniProt Q9Y6R4)
[6] = biological target: MEK3 (Homo sapiens, UniProt P46734)
[7] = biological target: CAMK2D (Homo sapiens, UniProt Q13557)
[8] = biological target: MLK2 (Homo sapiens, UniProt Q02779)
[9] = biological target: CSNK1G1 (Homo sapiens, UniProt Q9HCP0)
[10] = biological target: HUNK (Homo sapiens, UniProt P57058)
[11] = biological target: IRAK3 (Homo sapiens, UniProt Q9Y616)
[12] = biological target: LIMK2 (Homo sapiens, UniProt P53671)
[13] = biological target: FGFR3 (Homo sapiens, UniProt P22607)
[14] = biological target: CSNK1D (Homo sapiens, UniProt P48730)
[15] = biological target: INSRR (Homo sapiens, UniProt P14616)
[16] = biological target: DCAMKL2 (Homo sapiens, UniProt Q8N568)
Sequence of DCAMKL2 (Q8N568 whole entry): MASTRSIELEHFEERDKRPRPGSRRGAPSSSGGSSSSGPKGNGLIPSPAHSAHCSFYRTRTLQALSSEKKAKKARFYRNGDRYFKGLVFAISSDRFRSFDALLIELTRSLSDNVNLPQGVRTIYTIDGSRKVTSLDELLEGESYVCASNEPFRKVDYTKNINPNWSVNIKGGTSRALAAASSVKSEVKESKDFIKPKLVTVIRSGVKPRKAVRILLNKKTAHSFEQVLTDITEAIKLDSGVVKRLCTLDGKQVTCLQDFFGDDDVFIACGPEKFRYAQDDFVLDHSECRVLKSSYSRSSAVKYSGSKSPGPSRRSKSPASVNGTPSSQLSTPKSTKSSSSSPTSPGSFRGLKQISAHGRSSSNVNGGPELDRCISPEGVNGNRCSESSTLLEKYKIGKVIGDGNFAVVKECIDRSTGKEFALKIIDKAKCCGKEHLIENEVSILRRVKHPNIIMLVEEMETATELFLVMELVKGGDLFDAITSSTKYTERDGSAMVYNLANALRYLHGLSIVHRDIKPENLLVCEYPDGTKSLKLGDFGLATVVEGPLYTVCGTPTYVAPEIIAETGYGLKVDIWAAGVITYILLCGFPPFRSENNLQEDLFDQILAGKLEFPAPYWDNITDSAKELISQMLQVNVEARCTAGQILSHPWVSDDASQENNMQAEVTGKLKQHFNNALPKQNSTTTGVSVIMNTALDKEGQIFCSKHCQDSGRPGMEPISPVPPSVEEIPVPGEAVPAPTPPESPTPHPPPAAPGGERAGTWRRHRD

[17] = biological target: FGFR3(G697C) (Homo sapiens, UniProt P22607, G697C)
[18] = biological target: IRAK4 (Homo sapiens, UniProt Q9NWZ3)
[19] = biological target: DAPK3 (Homo sapiens, UniProt O43293)
[20] = biological target: FLT3(N841I) (Homo sapiens, UniProt P36888, N841I)
[21] = biological target: HIPK3 (Homo sapiens, UniProt Q9H422)
Sequence of HIPK3 (Q9H422 whole entry): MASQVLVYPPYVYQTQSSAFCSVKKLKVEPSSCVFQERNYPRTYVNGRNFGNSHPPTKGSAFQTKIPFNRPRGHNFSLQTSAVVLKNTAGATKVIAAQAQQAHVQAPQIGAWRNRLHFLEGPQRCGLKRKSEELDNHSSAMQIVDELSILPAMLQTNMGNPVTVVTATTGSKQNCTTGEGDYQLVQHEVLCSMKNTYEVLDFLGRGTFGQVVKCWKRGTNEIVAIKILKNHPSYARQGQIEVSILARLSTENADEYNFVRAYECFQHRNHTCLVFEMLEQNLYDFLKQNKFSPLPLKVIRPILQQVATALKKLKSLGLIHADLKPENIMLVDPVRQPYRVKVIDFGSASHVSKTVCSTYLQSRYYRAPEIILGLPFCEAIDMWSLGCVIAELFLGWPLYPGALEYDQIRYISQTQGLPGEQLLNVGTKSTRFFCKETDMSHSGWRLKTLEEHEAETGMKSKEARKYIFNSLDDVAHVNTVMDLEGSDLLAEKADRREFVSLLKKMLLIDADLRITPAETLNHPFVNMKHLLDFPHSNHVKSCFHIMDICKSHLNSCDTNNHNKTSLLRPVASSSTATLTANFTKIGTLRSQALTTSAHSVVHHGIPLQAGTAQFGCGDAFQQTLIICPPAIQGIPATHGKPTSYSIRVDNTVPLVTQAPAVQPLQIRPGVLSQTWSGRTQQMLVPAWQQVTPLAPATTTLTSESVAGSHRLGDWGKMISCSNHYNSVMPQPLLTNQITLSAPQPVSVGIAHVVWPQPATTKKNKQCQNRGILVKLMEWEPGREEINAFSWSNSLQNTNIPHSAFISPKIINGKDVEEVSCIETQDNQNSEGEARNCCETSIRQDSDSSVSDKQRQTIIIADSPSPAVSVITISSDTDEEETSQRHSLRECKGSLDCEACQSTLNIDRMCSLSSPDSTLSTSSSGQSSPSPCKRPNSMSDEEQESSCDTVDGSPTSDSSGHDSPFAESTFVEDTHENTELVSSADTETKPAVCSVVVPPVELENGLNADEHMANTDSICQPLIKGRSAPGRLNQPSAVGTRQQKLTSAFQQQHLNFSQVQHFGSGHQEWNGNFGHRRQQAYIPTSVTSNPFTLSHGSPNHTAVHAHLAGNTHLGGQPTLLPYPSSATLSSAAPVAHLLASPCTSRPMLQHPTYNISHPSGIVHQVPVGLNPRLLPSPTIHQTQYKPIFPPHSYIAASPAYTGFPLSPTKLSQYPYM

[22] = biological target: DCAMKL3 (Homo sapiens, UniProt Q9C098)
[23] = biological target: HIPK4 (Homo sapiens, UniProt Q8NE63)
Sequence of HIPK4 (Q8NE63 whole entry): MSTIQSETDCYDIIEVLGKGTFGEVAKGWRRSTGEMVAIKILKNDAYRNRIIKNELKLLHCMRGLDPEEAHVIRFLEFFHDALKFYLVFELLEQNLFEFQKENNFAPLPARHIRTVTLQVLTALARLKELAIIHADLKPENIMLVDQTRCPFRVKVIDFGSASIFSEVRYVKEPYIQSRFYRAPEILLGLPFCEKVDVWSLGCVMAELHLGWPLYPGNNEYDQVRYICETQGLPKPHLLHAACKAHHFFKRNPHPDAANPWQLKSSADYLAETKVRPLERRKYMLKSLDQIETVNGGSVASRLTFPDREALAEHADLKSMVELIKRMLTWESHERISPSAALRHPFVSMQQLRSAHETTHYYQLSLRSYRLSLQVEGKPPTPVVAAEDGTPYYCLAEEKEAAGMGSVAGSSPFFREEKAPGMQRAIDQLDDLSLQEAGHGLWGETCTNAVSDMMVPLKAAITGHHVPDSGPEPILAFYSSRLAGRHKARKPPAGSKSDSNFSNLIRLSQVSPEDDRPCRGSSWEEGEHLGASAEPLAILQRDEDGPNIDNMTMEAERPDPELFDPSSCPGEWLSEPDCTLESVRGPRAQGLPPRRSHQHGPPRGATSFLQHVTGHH

[24] = biological target: IKK-alpha (Homo sapiens, UniProt O15111)
[25] = biological target: MAPKAPK5 (Homo sapiens, UniProt Q8IW41)
[26] = biological target: CSNK1A1L (Homo sapiens, UniProt Q8N752)
[27] = biological target: DMPK (Homo sapiens, UniProt Q09013)
Sequence of DMPK (Q09013 whole entry): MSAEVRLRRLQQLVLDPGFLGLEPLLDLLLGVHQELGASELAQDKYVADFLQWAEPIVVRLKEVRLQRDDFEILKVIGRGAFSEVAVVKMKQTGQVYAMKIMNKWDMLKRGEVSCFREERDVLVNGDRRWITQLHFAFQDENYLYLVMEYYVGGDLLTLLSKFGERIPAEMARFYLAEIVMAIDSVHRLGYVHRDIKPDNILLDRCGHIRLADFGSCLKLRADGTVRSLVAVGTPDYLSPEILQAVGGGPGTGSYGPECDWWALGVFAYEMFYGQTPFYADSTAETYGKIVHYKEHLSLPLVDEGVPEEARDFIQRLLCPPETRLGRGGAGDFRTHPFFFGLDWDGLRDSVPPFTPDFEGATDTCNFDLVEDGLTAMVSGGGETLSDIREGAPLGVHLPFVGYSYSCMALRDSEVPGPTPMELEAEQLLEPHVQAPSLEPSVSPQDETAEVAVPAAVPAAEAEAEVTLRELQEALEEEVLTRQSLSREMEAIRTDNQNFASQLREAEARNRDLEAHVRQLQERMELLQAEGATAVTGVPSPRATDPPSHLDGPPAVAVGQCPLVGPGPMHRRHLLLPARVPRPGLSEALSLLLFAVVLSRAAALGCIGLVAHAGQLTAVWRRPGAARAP

[28] = biological target: CSNK1G3 (Homo sapiens, UniProt Q9Y6M4)
[29] = biological target: MEK1 (Homo sapiens, UniProt Q02750)
Sequence of MEK1 (Q02750 whole entry): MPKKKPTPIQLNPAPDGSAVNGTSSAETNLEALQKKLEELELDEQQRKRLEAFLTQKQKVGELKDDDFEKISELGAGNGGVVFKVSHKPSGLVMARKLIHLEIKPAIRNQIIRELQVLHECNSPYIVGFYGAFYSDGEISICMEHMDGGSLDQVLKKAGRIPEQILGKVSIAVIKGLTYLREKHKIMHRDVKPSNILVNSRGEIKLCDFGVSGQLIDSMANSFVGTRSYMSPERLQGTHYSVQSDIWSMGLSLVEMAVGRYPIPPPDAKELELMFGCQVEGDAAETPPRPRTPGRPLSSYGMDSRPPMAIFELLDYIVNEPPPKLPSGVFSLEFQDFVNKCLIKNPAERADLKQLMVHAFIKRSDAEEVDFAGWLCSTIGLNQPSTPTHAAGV

[30] = biological target: IGF1R (Homo sapiens, UniProt P08069)
[31] = read-out: CPT-1-70-1 (1uM) % control
[32] = read-out: HYJ-2-002-1 (1uM) % control

Sequence of AKT3 (Q9Y243 whole entry): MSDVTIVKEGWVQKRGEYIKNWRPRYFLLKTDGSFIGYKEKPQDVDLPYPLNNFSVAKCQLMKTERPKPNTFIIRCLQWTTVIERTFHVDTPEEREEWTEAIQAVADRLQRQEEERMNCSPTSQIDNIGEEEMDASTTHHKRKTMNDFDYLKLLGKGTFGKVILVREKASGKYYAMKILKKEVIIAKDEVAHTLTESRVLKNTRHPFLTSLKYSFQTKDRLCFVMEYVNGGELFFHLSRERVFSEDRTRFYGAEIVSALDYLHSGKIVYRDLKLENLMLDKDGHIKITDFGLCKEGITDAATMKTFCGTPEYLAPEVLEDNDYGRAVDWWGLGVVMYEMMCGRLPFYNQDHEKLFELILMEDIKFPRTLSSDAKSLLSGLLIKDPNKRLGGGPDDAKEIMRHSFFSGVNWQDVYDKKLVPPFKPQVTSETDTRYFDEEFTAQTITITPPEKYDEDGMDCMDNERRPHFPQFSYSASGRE
Sequence of GSK3B (P49841 whole entry): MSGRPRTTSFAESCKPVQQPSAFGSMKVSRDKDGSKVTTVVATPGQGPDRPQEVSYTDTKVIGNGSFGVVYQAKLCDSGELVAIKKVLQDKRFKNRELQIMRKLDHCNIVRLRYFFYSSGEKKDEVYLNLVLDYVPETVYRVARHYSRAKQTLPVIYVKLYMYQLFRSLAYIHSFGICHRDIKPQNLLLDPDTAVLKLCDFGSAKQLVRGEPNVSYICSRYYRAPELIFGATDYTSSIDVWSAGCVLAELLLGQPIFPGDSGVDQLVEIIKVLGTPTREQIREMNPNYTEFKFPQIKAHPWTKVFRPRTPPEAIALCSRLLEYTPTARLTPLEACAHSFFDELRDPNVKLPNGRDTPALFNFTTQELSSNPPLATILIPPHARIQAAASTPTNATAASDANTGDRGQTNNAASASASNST
Sequence of DRAK1 (Q9UEE5 whole entry): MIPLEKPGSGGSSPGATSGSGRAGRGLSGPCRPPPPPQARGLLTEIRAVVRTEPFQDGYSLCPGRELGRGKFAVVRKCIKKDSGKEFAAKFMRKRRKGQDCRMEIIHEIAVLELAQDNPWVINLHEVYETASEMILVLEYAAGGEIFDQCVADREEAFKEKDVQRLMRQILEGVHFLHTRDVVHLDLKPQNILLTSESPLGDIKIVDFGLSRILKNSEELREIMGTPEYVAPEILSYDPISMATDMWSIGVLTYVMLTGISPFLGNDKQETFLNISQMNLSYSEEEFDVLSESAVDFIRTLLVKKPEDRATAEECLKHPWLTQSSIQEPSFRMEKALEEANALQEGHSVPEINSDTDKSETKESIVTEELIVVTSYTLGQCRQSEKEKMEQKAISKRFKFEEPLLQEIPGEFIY

CN1CCN(c2ccc(Nc3nc(Oc4ccc(NC(=O)CCl)cc4)c4cc[nH]c4n3)cc2)CC1 [CPT1-70-1]
remaining activity at 1 µM [1, 31]: 16%
remaining activity at 1 µM [2, 31]: 14%
remaining activity at 1 µM [3, 31]: 98%
remaining activity at 1 µM [4, 31]: 100%
remaining activity at 1 µM [5, 31]: 66%
remaining activity at 1 µM [6, 31]: 26%
remaining activity at 1 µM [7, 31]: 100%
remaining activity at 1 µM [8, 31]: 56%
remaining activity at 1 µM [9, 31]: 18%
remaining activity at 1 µM [10, 31]: 78%
remaining activity at 1 µM [11, 31]: 89%
remaining activity at 1 µM [12, 31]: 100%
remaining activity at 1 µM [13, 31]: 35%
remaining activity at 1 µM [14, 31]: 43%
remaining activity at 1 µM [15, 31]: 33%
remaining activity at 1 µM [16, 31]: 92%
remaining activity at 1 µM [17, 31]: 34%
remaining activity at 1 µM [18, 31]: 94%
remaining activity at 1 µM [19, 31]: 59%
remaining activity at 1 µM [20, 31]: 1.2%
remaining activity at 1 µM [21, 31]: 74%
remaining activity at 1 µM [22, 31]: 56%
remaining activity at 1 µM [23, 31]: 74%
remaining activity at 1 µM [24, 31]: 85%
remaining activity at 1 µM [25, 31]: 98%
remaining activity at 1 µM [26, 31]: 80%
remaining activity at 1 µM [27, 31]: 41%
remaining activity at 1 µM [28, 31]: 2.6%
remaining activity at 1 µM [29, 31]: 51%
remaining activity at 1 µM [30, 31]: 62%

CCN1CCN(Cc2ccc(NC(=O)c3ccc(C)c(CCc4cnc5[nH]ccc5c4OC)c3)cc2C(F)(F)F)CC1 [HYJ-2-002-1]
remaining activity at 1 µM [1, 32]: 1.6%
remaining activity at 1 µM [2, 32]: 82%
remaining activity at 1 µM [3, 32]: 88%
remaining activity at 1 µM [4, 32]: 100%
remaining activity at 1 µM [5, 32]: 100%
remaining activity at 1 µM [6, 32]: 100%
remaining activity at 1 µM [7, 32]: 100%
remaining activity at 1 µM [8, 32]: 93%
remaining activity at 1 µM [9, 32]: 93%
remaining activity at 1 µM [10, 32]: 79%
remaining activity at 1 µM [11, 32]: 100%
remaining activity at 1 µM [12, 32]: 32%
remaining activity at 1 µM [13, 32]: 28%
remaining activity at 1 µM [14, 32]: 73%
remaining activity at 1 µM [15, 32]: 100%
remaining activity at 1 µM [16, 32]: 100%
remaining activity at 1 µM [17, 32]: 29%
remaining activity at 1 µM [18, 32]: 94%
remaining activity at 1 µM [19, 32]: 100%
remaining activity at 1 µM [20, 32]: 1.5%
remaining activity at 1 µM [21, 32]: 55%
remaining activity at 1 µM [22, 32]: 84%
remaining activity at 1 µM [23, 32]: 2.6%
remaining activity at 1 µM [24, 32]: 0.2%
remaining activity at 1 µM [25, 32]: 100%
remaining activity at 1 µM [26, 32]: 100%
remaining activity at 1 µM [27, 32]: 100%
remaining activity at 1 µM [28, 32]: 65%
remaining activity at 1 µM [29, 32]: 100%
remaining activity at 1 µM [30, 32]: 100%
